Measured values taken from patent publication US20230108125A1, “SMALL MOLECULE COMPOUNDS” (Apertor Pharmaceuticals, Inc., priority 2021, published 2023).

Each compound was assayed on Saccharomyces cerevisiae BY4742 (assay: Anti-yeast activity assay (minimum inhibitory concentration)). Conditions: YPD media, 30° C., 16 hours, lowest concentration with no obvious culture growth, triplicate, read-out: MIC against Saccharomyces cerevisiae BY4742.
Assay type: cell-based
Protocol: A single colony of Saccharomyces cerevisiae BY4742 was inoculated into 2 mL YPD media in a 5 mL falcon tube to grow overnight at 30° C. The overnight culture was inoculated into 5 mL YPD media in a glass tube at OD600=0.1, and the new culture was grown at 30° C. until OD600 reached 0.5. The culture was then diluted to OD600=0.01 and aliquoted into 96-well plates at 100 μL per well. The compound was dissolved in ethanol at 75 μM. Three-fold serial dilutions were conducted for the Compound 10 times using ethanol, respectively. 4 μL of each concentration compound solution was added and mixed with 384 μL YPD media. 100 μL of the YPD media solutions were mixed with the Saccharomyces cerevisiae cultures in 96-well plates by pipette, respectively. The plates were incubated at 30° C. for 16 hours without shaking. The lowest Compound concentrations in wells that have no obvious culture growth were defined as the minimum inhibitory concentrations (MICs). The assays were conducted in triplicate.

| MIC [µM] | SMILES |
| --- | --- |
| < 0.0556 | CO[C@H]1C[C@@H]2CC[C@@H](C)[C@@](O)(O2)C(=O)C(=O)N2CCCC[C@H]2C(=O)O[C@H]([C@H](C)C[C@@H]2CC[C@@H](O)[C@H](OC)C2)CC(=O)C/C=C(\C)[C@@H](O)[C@@H](OC)C(=O)[C@H](C)C[C@H](C)/C=C/C=C/C=C/1C [Compound 10, (3S,7E,9R,10R,12R,14S,15E,17E,19E,21S,23S,26R,27R,34aS)-9,27-dihydroxy-3-((R)-1-((1S,3R,4R)-4-hydroxy-3-methoxycyclohexyl)propan-2-yl)-10,21-dimethoxy-8,12,14,20,26-pentamethyl-9,10,12,13,14,21,22,23,24,25,26,27,32,33,34,34a-hexadecahydro-3H-23,27-epoxypyrido[2,1-c][1]oxa[4]azacyclohentriacontine-1,5,11,28,29(4H,6H,31H)-pentaone] |
| < 0.0556 | CO[C@H]1C[C@@H]2CCC[C@@](O)(O2)C(=O)C(=O)N2CCCC[C@H]2C(=O)O[C@H]([C@H](C)C[C@@H]2CC[C@@H](O)[C@H](OC)C2)CC(=O)[C@H](C)/C=C(\C)[C@@H](O)[C@@H](OC)C(=O)[C@H](C)C[C@H](C)/C=C/C=C/C=C/1C [Compound 12, (3S,6R,7E,9R,10R,12R,14S,15E,17E,19E,21S,23S,27R,34aS)-9,27-dihydroxy-3-((R)-1-((1S,3R,4R)-4-hydroxy-3-methoxycyclohexyl)propan-2-yl)-10,21-dimethoxy-6,8,12,14,20-pentamethyl-9,10,12,13,14,21,22,23,24,25,26,27,32,33,34,34a-hexadecahydro-3H-23,27-epoxypyrido[2,1-c][1]oxa[4]azacyclohentriacontine-1,5,11,28,29(4H,6H,31H)-pentaone] |
| < 0.0556 | CO[C@@H]1/C(C)=C/C=C/C=C/[C@@H](C)C[C@@H](C)C(=O)[C@H](OC)[C@H](O)/C(C)=C/[C@@H](C)C(=O)C[C@@H]([C@H](C)C[C@@H]2CC[C@@H](O)[C@H](OC)C2)OC(=O)[C@@H]2CCCCN2C(=O)C(=O)[C@]2(O)O[C@@H](CC[C@H]2C)[C@@H]1C [Compound 15, (3S,6R,7E,9R,10R,12R,14S,15E,17E,19E,21S,22S,23S,26R,27R,34aS)-9,27-dihydroxy-3-((R)-1-((1S,3R,4R)-4-hydroxy-3-methoxycyclohexyl)propan-2-yl)-10,21-dimethoxy-6,8,12,14,20,22,26-heptamethyl-9,10,12,13,14,21,22,23,24,25,26,27,32,33,34,34a-hexadecahydro-3H-23,27-epoxypyrido[2,1-c][1]oxa[4]azacyclohentriacontine-1,5,11,28,29(4H,6H,31H)-pentaone] |
